Data taken from patent US12612410B2 (CHILDREN'S HOSPITAL MEDICAL CENTER, priority 2020, dated 2026).

Columns and labels:
[1] = molecular target: T1, IRAK1 (Homo sapiens, UniProt P51617); assay: RBC HotSpot Kinase Assay, IRAK1; format: biochemical; conditions: isolated kinase, 33P-ATP
T1 construct: purchased Reaction Biology (RBC), HotSpot kinase assay
In short: (§1)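 Isolated recombinant kinase (possibly truncated or catalytic-domain form) was preincubated with compound for 20 min at room temp in 20 mM Hepes pH 7.5, 10 mM MgCl2, 1 mM EGTA, 0.01% Brij35, 1% DMSO with substrate; 33P-ATP started a 2 h room-temperature reaction, read by P81 filter binding.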

[2] = molecular target: T2, FLT3 (Homo sapiens, UniProt P36888); assay: RBC HotSpot Kinase Assay, FLT3; format: biochemical; parameters: purchased Reaction Biology (RBC), HotSpot kinase assay; conditions: isolated kinase, 33P-ATP
T2 sequence (P36888 27-993): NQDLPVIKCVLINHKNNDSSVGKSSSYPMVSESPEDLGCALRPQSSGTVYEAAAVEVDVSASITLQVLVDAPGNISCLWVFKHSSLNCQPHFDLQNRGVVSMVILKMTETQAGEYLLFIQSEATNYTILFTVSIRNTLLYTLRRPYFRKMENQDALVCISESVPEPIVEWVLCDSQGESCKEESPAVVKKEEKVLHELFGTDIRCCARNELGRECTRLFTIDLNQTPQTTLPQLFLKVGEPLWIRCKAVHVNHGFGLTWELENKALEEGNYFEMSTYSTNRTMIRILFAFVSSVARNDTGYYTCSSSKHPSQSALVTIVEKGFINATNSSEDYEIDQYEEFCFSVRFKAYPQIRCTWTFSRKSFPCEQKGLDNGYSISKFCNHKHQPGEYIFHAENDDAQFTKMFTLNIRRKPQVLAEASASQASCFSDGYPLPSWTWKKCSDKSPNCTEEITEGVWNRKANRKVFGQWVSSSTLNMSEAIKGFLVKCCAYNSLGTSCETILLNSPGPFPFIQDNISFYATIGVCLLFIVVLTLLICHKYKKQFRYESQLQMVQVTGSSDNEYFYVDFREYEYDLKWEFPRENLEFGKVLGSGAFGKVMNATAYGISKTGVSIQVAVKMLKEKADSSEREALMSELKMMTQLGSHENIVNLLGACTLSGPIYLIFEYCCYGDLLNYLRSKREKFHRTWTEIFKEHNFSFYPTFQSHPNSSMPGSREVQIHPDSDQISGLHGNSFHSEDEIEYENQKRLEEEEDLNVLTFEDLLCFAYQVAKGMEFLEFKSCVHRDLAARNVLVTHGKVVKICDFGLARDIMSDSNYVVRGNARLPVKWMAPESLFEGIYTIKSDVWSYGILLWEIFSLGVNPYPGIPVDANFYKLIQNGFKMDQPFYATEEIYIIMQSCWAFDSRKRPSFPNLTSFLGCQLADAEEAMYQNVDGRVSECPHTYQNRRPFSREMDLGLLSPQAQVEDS
In short: as §1

T1 sequence (P51617 whole entry): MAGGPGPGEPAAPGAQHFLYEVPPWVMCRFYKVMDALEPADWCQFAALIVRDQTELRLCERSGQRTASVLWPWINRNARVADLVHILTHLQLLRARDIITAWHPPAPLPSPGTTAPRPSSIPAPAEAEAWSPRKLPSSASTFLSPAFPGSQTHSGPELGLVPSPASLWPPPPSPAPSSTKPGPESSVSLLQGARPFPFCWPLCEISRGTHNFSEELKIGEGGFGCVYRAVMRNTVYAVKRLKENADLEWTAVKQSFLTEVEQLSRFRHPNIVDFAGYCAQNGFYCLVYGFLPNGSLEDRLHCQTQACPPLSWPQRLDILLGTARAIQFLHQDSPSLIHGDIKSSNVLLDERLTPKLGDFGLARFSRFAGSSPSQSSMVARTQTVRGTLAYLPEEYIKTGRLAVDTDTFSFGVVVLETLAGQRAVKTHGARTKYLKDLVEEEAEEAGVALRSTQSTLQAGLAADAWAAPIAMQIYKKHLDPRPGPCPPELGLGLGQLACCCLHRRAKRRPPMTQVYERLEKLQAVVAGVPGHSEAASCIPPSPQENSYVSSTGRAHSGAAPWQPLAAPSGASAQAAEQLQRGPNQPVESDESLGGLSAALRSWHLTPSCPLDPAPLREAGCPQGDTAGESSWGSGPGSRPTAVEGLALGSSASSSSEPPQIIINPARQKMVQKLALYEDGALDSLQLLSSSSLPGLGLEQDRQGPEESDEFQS

Row | Structure (SMILES) | IC50 [1] | IC50 [2]
1 | CC(O)(c1cn2c(-c3cccc(N[C@@H]4CCCNC4)n3)cnc2cn1)C(F)(F)F (single isomer, unassigned) [Compound 81] | 31 nM | < 0.5 nM
2 | Cn1cc(-c2cn3c(-c4cccc(N[C@H]5CNC[C@@H]5F)n4)cnc3cn2)cn1 [Compound 52, N-((3S,4S)-4-fluoropyrrolidin-3-yl)-6-(6-(1-methyl-1H-pyrazol-4-yl)imidazo[1,2-a]pyrazin-3-yl)pyridin-2-amine] | 202 nM | < 0.5 nM
3 | CC(C)(O)c1cn2c(-c3cccc(N[C@@H]4CCCNC4)n3)cnc2cn1 [Compound 30, (R)-2-(3-(6-(piperidin-3-ylamino)pyridin-2-yl)imidazo[1,2-a]pyrazin-6-yl)propan-2-ol] | 58 nM | < 0.5 nM

More lines, now with the values ahead:

Row | IC50 [1] | IC50 [2] | Structure (SMILES)
4 | 49 nM | < 0.5 nM | CC(C)(C)c1cn2c(-c3cccc(N[C@H]4CNCC[C@@H]4F)n3)cnc2cn1 [Compound 130, 6-(6-(tert-butyl)imidazo[1,2-a]pyrazin-3-yl)-N-((3S,4S)-4-fluoropiperidin-3-yl)pyridin-2-amine]
5 | 45 nM | 1 nM | CC(C)(O)c1cn2c(-c3nc(N[C@H]4CNCC[C@@H]4F)c(F)cc3F)cnc2cn1 [Compound 35, 2-(3-(3,5-difluoro-6-(((3S,4S)-4-fluoropiperidin-3-yl)amino)pyridin-2-yl)imidazo[1,2-a]pyrazin-6-yl)propan-2-ol]
6 | 80 nM | < 0.5 nM | F[C@H]1CCNC[C@@H]1Nc1cccc(-c2cnc3cnc(C4CC4)cn23)n1 [Compound 51, 6-(6-cyclopropylimidazo[1,2-a]pyrazin-3-yl)-N-((3S,4S)-4-fluoropiperidin-3-yl)pyridin-2-amine]
7 | 130 nM | 1 nM | O=C1CCCN1c1cn2c(-c3nc(N[C@H]4CNCC[C@@H]4F)c(F)cc3F)cnc2cn1 [Compound 107, 1-[3-[3,5-difluoro-6-[[(3S,4S)-4-fluoro-3-piperidyl]amino]-2-pyridyl]imidazo[1,2-a]pyrazin-6-yl]pyrrolidin-2-one]
